Columns and labels:
PC-3 cell line = test: MTT cytotoxicity assay, PC-3; format: cell-based; conditions: Homo sapiens, PC-3, 72 h, average of two determinations, NA = No Activity
Protocol: (§1) Taking GDC-0941 as the reference compound, the target compounds (7a–l and 8a–l) were evaluated for the cytotoxicity against four cancer cell lines A549, PC-3, MCF-7, and HepG2 by 3-(4,5-dimethylthiazolyl-2)-2,5-diphenyltetrazolium bromide (MTT) cell proliferation assay. In order to confirm the types of target compound, selective or mixed-type inhibitors, the selected compound, 8d, was measured for its PI3Kα kinase inhibitory activity together with reference compounds GDC-0941 and PI103 via the Kinase-Glo® Luminescent […] assay. The results expressed as inhibition rates or IC50 values are summarized in Table 1 and Table 2, where the values are the average of at least two independent experiments.
(§2) The in vitro cytotoxic activities of Compounds 7a–l and 8a–l were evaluated with A549, PC-3, HepG2, and MCF-7 cell lines by the standard MTT assay, with GDC-0941 as a positive control. The cancer cell lines were cultured in minimum essential medium (MEM) supplement with 10% fetal bovine serum (FBS). Approximately, 4 × 10^3 cells, suspended in MEM medium, were plated onto each well of a 96-well plate and incubated in 5% CO2 at 37 °C for 24 h. The test compounds at the indicated final concentrations were added to the culture medium, and cell cultures continued for 72 h. Fresh MTT was added to each well at a terminal concentration of […] and incubated with cells at 37 °C for 4 h. The formazan crystals were dissolved in 100 µL of DMSO in each well, and the absorbency at 492 nm (for absorbance of MTT formazan) and 630 nm (for the reference wavelength) was measured with an enzyme linked immunosorbent assay (ELISA) reader (MR-96A Mindray Elisa Microplate Reader, Guangzhou, China). All compounds were tested three times in each of the cell lines. The results expressed as inhibition rates or IC50 were the averages of two determinations and calculated using the Bacus Laboratories Inc. Slide Scanner (Bliss) software (the Bacus Laboratories Inc. Slide Scanner (BLISS) system, Lombard, IL, USA).

MCF-7 cell line = test: MTT cytotoxicity assay, MCF-7; format: cell-based; conditions: Homo sapiens, MCF7, 72 h, average of two determinations, NA = No Activity
Protocol: as §1, §2

A549 cell line = test: MTT cytotoxicity assay, A549; format: cell-based; conditions: Homo sapiens, A549, 72 h, average of two determinations, NA = No Activity
Protocol: as §1, §2

HepG2 cell line = test: MTT cytotoxicity assay, HepG2; format: cell-based; conditions: Homo sapiens, HepG2, 72 h, average of two determinations, NA = No Activity
Protocol: as §1, §2

Row | melting point | Structure (SMILES) | IC50 (PC-3 cell line) | IC50 (MCF-7 cell line) | IC50 (A549 cell line) | IC50 (HepG2 cell line)
1 | 194 to 196 °C | Cc1ccc(C2=NN(c3nc4c(c(N5CCOCC5)n3)CSCC4)[C@@H](c3ccc(Cl)c(Cl)c3)C2)cc1 [Compound 7b, (R)-4-(2-(5-(3,4-Dichlorophenyl)-3-(p-tolyl)-4,5-dihydro-1H-pyrazol-1-yl)-7,8-dihydro-5H-thiopyrano[4,3-d]pyrimidin-4-yl)morpholine] | 14.1 ± 3.45 µM | 42.6 ± 1.75 µM | 24.2 ± 0.74 µM | 27.8 ± 0.99 µM
2 | 185 to 186 °C | Clc1ccc([C@H]2CC(c3ccc(Br)cc3)=NN2c2nc3c(c(N4CCOCC4)n2)CSCC3)cc1Cl [Compound 7c, (R)-4-(2-(3-(4-Bromophenyl)-5-(3,4-dichlorophenyl)-4,5-dihydro-1H-pyrazol-1-yl)-7,8-dihydro-5H-thiopyrano[4,3-d]pyrimidin-4-yl)morpholine] | 12.9 ± 1.56 µM | 22.98 ± 0.19 µM | 13 ± 0.42 µM | 15.36 ± 0.03 µM
3 | 207 to 211 °C | Fc1ccc(C2=NN(c3nc4c(c(N5CCOCC5)n3)CSCC4)[C@@H](c3ccc(Cl)c(Cl)c3)C2)cc1 [Compound 7d, (R)-4-(2-(5-(3,4-Dichlorophenyl)-3-(4-fluorophenyl)-4,5-dihydro-1H-pyrazol-1-yl)-7,8-dihydro-5H-thiopyrano[4,3-d]pyrimidin-4-yl)morpholine] | 8.91 ± 0.72 µM | 10.3 ± 0.94 µM | 6.02 ± 1.22 µM | 8.39 ± 1.91 µM
4 | 144 to 146 °C | Fc1ccc(C2=NN(c3nc4c(c(N5CCOCC5)n3)CSCC4)[C@@H](c3ccc(F)cc3)C2)cc1 [Compound 7g, (R)-4-(2-(3,5-Bis(4-fluorophenyl)-4,5-dihydro-1H-pyrazol-1-yl)-7,8-dihydro-5H-thiopyrano[4,3-d]pyrimidin-4-yl)morpholine] | 15.2 ± 1.54 µM | 26.4 ± 0.37 µM | 16.9 ± 0.66 µM | 20.3 ± 0.37 µM
5 | 116 to 118 °C | COc1ccc(C2=NN(c3nc4c(c(N5CCOCC5)n3)CSCC4)[C@@H](c3ccc(F)cc3)C2)cc1 [Compound 7h, (R)-4-(2-(5-(4-Fluorophenyl)-3-(4-methoxyphenyl)-4,5-dihydro-1H-pyrazol-1-yl)-7,8-dihydro-5H-thiopyrano[4,3-d]pyrimidin-4-yl)morpholine] | 29.8 ± 0.89 µM | 30.3 ± 0.88 µM | 26.7 ± 0.88 µM | 20.5 ± 0.67 µM
6 | 167 to 168 °C | Brc1ccc([C@H]2CC(c3ccccc3)=NN2c2nc3c(c(N4CCOCC4)n2)CSCC3)cc1 [Compound 7k, (R)-4-(2-(5-(4-Bromophenyl)-3-phenyl-4,5-dihydro-1H-pyrazol-1-yl)-7,8-dihydro-5H-thiopyrano[4,3-d]pyrimidin-4-yl)morpholine] | 17.8 ± 0.55 µM | 35.7 ± 0.74 µM | 31.2 ± 0.59 µM | 32.7 ± 0.36 µM
7 | > 300 °C | COc1ccc(C2=NN(c3nc4c(c(N5CCOCC5)n3)CSCC4)[C@@H](c3ccccc3)C2)cc1 [Compound 7l, (R)-4-(2-(3-(4-Methoxyphenyl)-5-phenyl-4,5-dihydro-1H-pyrazol-1-yl)-7,8-dihydro-5H-thiopyrano[4,3-d]pyrimidin-4-yl)morpholine] | 28.25 ± 0.14 µM |  | 36.4 ± 0.62 µM | 
8 | 219 to 220 °C | O=S1(=O)CCc2nc(N3N=C(c4ccccc4)C[C@@H]3c3ccccc3)nc(N3CCOCC3)c2C1 [Compound 8a, (R)-2-(3,5-Diphenyl-4,5-dihydro-1H-pyrazol-1-yl)-4-morpholino-7,8-dihydro-5H-thiopyrano[4,3-d]pyrimidine 6,6-dioxide] |  | 41.2 ± 1.25 µM | 27.6 ± 0.85 µM | 32.7 ± 0.39 µM
9 | 225 to 226 °C | Cc1ccc(C2=NN(c3nc4c(c(N5CCOCC5)n3)CS(=O)(=O)CC4)[C@@H](c3ccc(Cl)c(Cl)c3)C2)cc1 [Compound 8b, (R)-2-(5-(3,4-Dichlorophenyl)-3-(p-tolyl)-4,5-dihydro-1H-pyrazol-1-yl)-4-morpholino-7,8-dihydro-5H-thiopyrano[4,3-d]pyrimidine 6,6-dioxide] | 17.8 ± 1.18 µM | 42.46 ± 0.03 µM | 35.6 ± 1.47 µM | 
10 | 162 to 163 °C | O=S1(=O)CCc2nc(N3N=C(c4ccc(Br)cc4)C[C@@H]3c3ccc(Cl)c(Cl)c3)nc(N3CCOCC3)c2C1 [Compound 8c, (R)-2-(3-(4-Bromophenyl)-5-(3,4-dichlorophenyl)-4,5-dihydro-1H-pyrazol-1-yl)-4-morpholino-7,8-dihydro-5H-thiopyrano[4,3-d]pyrimidine 6,6-dioxide] | 37.58 ± 0.22 µM | 43.86 ± 0.15 µM | 27.8 ± 1.18 µM | 0.06 ± 0.01 µM
11 | 109 to 114 °C | COc1ccc(C2=NN(c3nc4c(c(N5CCOCC5)n3)CS(=O)(=O)CC4)[C@@H](c3ccccc3)C2)cc1 [Compound 8l, (R)-2-(3-(4-Methoxyphenyl)-5-phenyl-4,5-dihydro-1H-pyrazol-1-yl)-4-morpholino-7,8-dihydro-5H-thiopyrano[4,3-d]pyrimidine 6,6-dioxide] | 37.38 ± 0.23 µM |  |  | 

More lines, now with the values behind:

Row | Structure (SMILES) | melting point | IC50 (PC-3 cell line) | IC50 (MCF-7 cell line) | IC50 (A549 cell line) | IC50 (HepG2 cell line)
12 | Clc1ccc([C@H]2CC(c3ccccc3)=NN2c2nc3c(c(N4CCOCC4)n2)CSCC3)cc1Cl (racemic) [Compound 7e, (R)-4-(2-(5-(3,4-Dichlorophenyl)-3-phenyl-4,5-dihydro-1H-pyrazol-1-yl)-7,8-dihydro-5H-thiopyrano[4,3-d]pyrimidin-4-yl)morpholine] |  | 37.8 ± 3.64 µM | 35.9 ± 0.71 µM |  | 
13 | Cc1ccc(C2=NN(c3nc4c(c(N5CCOCC5)n3)CSCC4)[C@@H](c3ccc(Br)cc3)C2)cc1 (racemic) [Compound 7i, (R)-4-(2-(5-(4-Bromophenyl)-3-(p-tolyl)-4,5-dihydro-1H-pyrazol-1-yl)-7,8-dihydro-5H-thiopyrano[4,3-d]pyrimidin-4-yl)morpholine] |  | 25.4 ± 0.74 µM |  | 16.4 ± 0.43 µM | 
14 | Fc1ccc(C2=NN(c3nc4c(c(N5CCOCC5)n3)CSCC4)[C@@H](c3ccc(Br)cc3)C2)cc1 (racemic) [Compound 7j, (R)-4-(2-(5-(4-Bromophenyl)-3-(4-fluorophenyl)-4,5-dihydro-1H-pyrazol-1-yl)-7,8-dihydro-5H-thiopyrano[4,3-d]pyrimidin-4-yl)morpholine] |  | 14.8 ± 1.02 µM | 28.25 ± 0.14 µM | 19.2 ± 1.25 µM | 23.8 ± 0.55 µM
15 | Cc1ccc(C2=NN(c3nc4c(c(N5CCOCC5)n3)CS(=O)(=O)CC4)[C@@H](c3ccc(Br)cc3)C2)cc1 (racemic) [Compound 8i, (R)-2-(5-(4-Bromophenyl)-3-(p-tolyl)-4,5-dihydro-1H-pyrazol-1-yl)-4-morpholino-7,8-dihydro-5H-thiopyrano[4,3-d]pyrimidine 6,6-dioxide] |  | 31.89 ± 0.25 µM |  | 28.1 ± 0.89 µM | 24.7 ± 0.74 µM
16 | O=S1(=O)CCc2nc(N3N=C(c4ccc(F)cc4)C[C@@H]3c3ccc(Br)cc3)nc(N3CCOCC3)c2C1 (racemic) [Compound 8j, (R)-2-(5-(4-Bromophenyl)-3-(4-fluorophenyl)-4,5-dihydro-1H-pyrazol-1-yl)-4-morpholino-7,8-dihydro-5H-thiopyrano[4,3-d]pyrimidine 6,6-dioxide] |  | 31.9 ± 0.92 µM | 46.6 ± 0.89 µM | 29.7 ± 0.32 µM | 27.8 ± 0.64 µM
17 | c1ccc(C2=NN(c3nc4c(c(N5CCOCC5)n3)CSCC4)[C@@H](c3ccccc3)C2)cc1 [Compound 7a, (R)-4-(2-(3,5-Diphenyl-4,5-dihydro-1H-pyrazol-1-yl)-7,8-dihydro-5H-thiopyrano[4,3-d]pyrimidin-4-yl)morpholine] | 139 to 142 °C | 28.8 ± 2.4 µM | 21.7 ± 0.78 µM | 21.7 ± 0.76 µM | 20.3 ± 1.15 µM
18 | O=S1(=O)CCc2nc(N3N=C(c4ccccc4)C[C@@H]3c3ccc(Cl)c(Cl)c3)nc(N3CCOCC3)c2C1 [Compound 8e, (R)-2-(5-(3,4-Dichlorophenyl)-3-phenyl-4,5-dihydro-1H-pyrazol-1-yl)-4-morpholino-7,8-dihydro-5H-thiopyrano[4,3-d]pyrimidine 6,6-dioxide] |  |  | 35.3 ± 0.49 µM |  | 
19 | COc1ccc(C2=NN(c3nc4c(c(N5CCOCC5)n3)CS(=O)(=O)CC4)[C@@H](c3ccc(Cl)c(Cl)c3)C2)cc1 [Compound 8f, (R)-2-(5-(3,4-Dichlorophenyl)-3-(4-methoxyphenyl)-4,5-dihydro-1H-pyrazol-1-yl)-4-morpholino-7,8-dihydro-5H-thiopyrano[4,3-d]pyrimidine 6,6-dioxide] |  | 38.65 ± 0.18 µM |  |  | 35.01 ± 0.18 µM
20 | CS(=O)(=O)N1CCN(Cc2cc3nc(-c4cccc5[nH]ncc45)nc(N4CCOCC4)c3s2)CC1 [GDC-0941, Pictilisib dimethanesulfonate, reference compound] |  | 0.2 ± 0.08 µM | 4.3 ± 0.84 µM | 6.99 ± 0.21 µM | 0.07 ± 0.03 µM
